These results are taken from PubChem BioAssay AID278 (DTP/NCI, 2004).

Values joined by “and” are separate entries in the source; they are usually repeats but may differ in a detail not shown here. Identical values can stand only once. Records with an inconclusive call do not appear.

In the assay the test system is nude mice, A549 intrarenal xenograft, tumor weight change. Put plainly: NCI In Vivo Anticancer Drug Screen. Data for tumor model A549 Human Adenocarcinoma of Lung with characteristics of Type II Alveolar Epithelial cells (intrarenal inoculation) in NU/NU BALB/C (nude) mice. Conditions: endpoint: mean tumor weight change, schedule: Q04DX003 (ip), higher = larger tumour. The essentials: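 Mice bearing transplantable tumors were treated and survival or tumor size recorded. Values are given as treated-group measurement divided by vehicle-control measurement (T/C).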

[1] abbreviates: dose: 12.5 mg/kg/injection, vehicle: saline.
[2] abbreviates: dose: 25.0 mg/kg/injection, vehicle: saline.
The mark [3] stands for this setting: dose: 150.0 mg/kg/injection, vehicle: saline with Tween-80.
The mark [4] stands for this setting: dose: 300.0 mg/kg/injection, vehicle: saline with Tween-80.
Setting [5] is: dose: 90.0 mg/kg/injection, vehicle: saline with Tween-80.
Setting [6] is: dose: 250.0 mg/kg/injection, vehicle: saline with Tween-80.
Where [7] appears, read: dose: 75.0 mg/kg/injection, vehicle: saline with Tween-80.

For `COc1cc2c(cc1OC)-c1c3c(cc4c1[C@@H](C2)N(C)CC4)OCO3`, the T/C by setting is: (dose: 37.5 mg/kg/injection, vehicle: distilled water + Tween-80 + alcohol) 89 % of control; (dose: 75.0 mg/kg/injection, vehicle: distilled water + Tween-80 + alcohol) 84 % of control; (dose: 150.0 mg/kg/injection, vehicle: distilled water + Tween-80 + alcohol) 21 % of control.

For `COc1cccc2c1C(CO)N1C(C#N)C3CC(C(=O)O)C(C1C2)N3C` (stereo not given), the T/C reads like this: (dose: 3.75 mg/kg/injection, vehicle: saline) 24 % of control; (dose: 6.25 mg/kg/injection, vehicle: saline) 32 % of control; (dose: 7.5 mg/kg/injection, vehicle: saline with Tween-80) 64 % of control; (dose: 7.5 mg/kg/injection, vehicle: saline) 73 % of control; under setting [1], 76 % of control; (dose: 15.0 mg/kg/injection, vehicle: saline with Tween-80) 57 % of control. The T/C by setting is: (dose: 15.0 mg/kg/injection, vehicle: saline) 59 % of control; under setting [2], 33 % of control; (dose: 30.0 mg/kg/injection, vehicle: saline with Tween-80) 59 % of control; (dose: 30.0 mg/kg/injection, vehicle: saline) 39 % of control; (dose: 50.0 mg/kg/injection, vehicle: saline) 52 % of control; (dose: 60.0 mg/kg/injection, vehicle: saline) 17 % of control.

For `CC(=O)c1cccc(NC2C(N)C(NC(=O)N(C)C)(C(C)O)C(C)(O)C2(O)COC(=O)c2c(C)cccc2O)c1` (stereo not given), the T/C runs as follows: (dose: 6.25 mg/kg/injection, vehicle: suspension in saline) 183 % of control; (dose: 12.5 mg/kg/injection, vehicle: suspension in saline) 121 % of control; (dose: 25.0 mg/kg/injection, vehicle: suspension in saline) 120 % of control; (dose: 50.0 mg/kg/injection, vehicle: suspension in saline) 68 % of control.

As to `NNC(=O)c1ccncc1`, the T/C (dose: 37.5 mg/kg/injection, vehicle: saline) is 99 % of control; the T/C (dose: 75.0 mg/kg/injection, vehicle: saline) was 104 % of control; the T/C (dose: 150.0 mg/kg/injection, vehicle: saline) is 69 % of control.

With `O=c1[nH]cnc2c1nnn2C1OC(CO)C(O)C1O` (stereo not given), the T/C is, setting by setting: (dose: 150.0 mg/kg/injection, vehicle: suspension in saline) 83 % of control; (dose: 300.0 mg/kg/injection, vehicle: suspension in saline) 47 % of control; (dose: 600.0 mg/kg/injection, vehicle: suspension in saline) 32 % of control; (dose: 1200.0 mg/kg/injection, vehicle: suspension in saline) 38 % of control.

For `O=C(Nc1cccnc1)c1ccc([N+](=O)[O-])s1`, the T/C (dose: 200.0 mg/kg/injection, vehicle: saline with Tween-80) was 38 % of control and 51 % of control.

For the molecule `Nc1n[nH]c2ccccc12`, the T/C is, setting by setting: under setting [3], 69 % of control; under setting [4], 52 % of control; (dose: 600.0 mg/kg/injection, vehicle: saline with Tween-80) 33 % of control.

On to `CNC(=O)OCc1nc(SC)n(C)c1COC(=O)NC`, for which the T/C by setting is: under setting [1], 156 % of control; under setting [2], 28 % of control.

As for `O=[N+]([O-])c1ccc([I+]c2ccccc2)cc1`, the T/C reads like this: (dose: 18.75 mg/kg/injection, vehicle: Klucel (hydroxypropylcellulose) (HPC)) 35 % of control; (dose: 37.5 mg/kg/injection, vehicle: Klucel (hydroxypropylcellulose) (HPC)) 101 % of control; (dose: 75.0 mg/kg/injection, vehicle: Klucel (hydroxypropylcellulose) (HPC)) 51 % of control.

Take `CCN(CC)c1ccc2[nH]c3c(C(N)=O)cc(=O)c(=O)c=3oc2c1`: the T/C by setting is: under setting [3], 84 % of control; under setting [4], 96 % of control.

As to `CN(C)N=Nc1ccc(C(N)=O)cc1`, the T/C runs as follows: (dose: 22.5 mg/kg/injection, vehicle: saline with Tween-80) 65 % of control; (dose: 45.0 mg/kg/injection, vehicle: saline with Tween-80) 55 % of control; under setting [5], 54 % of control; (dose: 180.0 mg/kg/injection, vehicle: saline with Tween-80) 17 % of control; (dose: 216.0 mg/kg/injection, vehicle: saline with Tween-80) 39 % of control; (dose: 360.0 mg/kg/injection, vehicle: saline with Tween-80) 2 % of control and 15 % of control.

`CCCCCCCCCCCCN1C(C)=CS/C1=C\C=C\c1scc(C)[n+]1CCCCCCCCCCCC`: the T/C is 112 % of control (dose: 0.75 mg/kg/injection, vehicle: saline with Tween-80); 87 % of control (dose: 1.5 mg/kg/injection, vehicle: saline with Tween-80); 36 % of control (dose: 6.0 mg/kg/injection, vehicle: saline with Tween-80).

With `CC(C)(C)NC(C1=CC(C)(C)c2ccccc2C1=O)c1ccccc1` (stereo not given), the T/C was 107 % of control (dose: 100.0 mg/kg/injection, vehicle: Klucel (hydroxypropylcellulose) (HPC)) and 65 % of control (dose: 200.0 mg/kg/injection, vehicle: Klucel (hydroxypropylcellulose) (HPC)).

On to `CN(C)CCNc1ccc(CO)c2sc3ccc(O)cc3c(=O)c12`, for which the T/C runs as follows: (dose: 54.0 mg/kg/injection, vehicle: saline with Tween-80) 5 % of control; under setting [5], 3 % of control; under setting [3], 2 % of control and 12 % of control; under setting [6], -36 % of control.

Regarding `NC(Cc1ccccc1)C(=O)OCN1C(=O)C2C3C=CC(C2C1=O)C1C2C(=O)N(COC(=O)C(N)Cc4ccccc4)C(=O)C2C31` (stereo not given), the T/C was 82 % of control (dose: 25.0 mg/kg/injection, vehicle: other); 73 % of control (dose: 50.0 mg/kg/injection, vehicle: other); 48 % of control (dose: 100.0 mg/kg/injection, vehicle: other); 35 % of control (dose: 200.0 mg/kg/injection, vehicle: other).

On to `COc1cccc2c1C(=O)c1c(O)c3c(c(O)c1C2=O)C[C@@](O)(C(=O)CO)C[C@@H]3OC1CC(N)C(O)C(C)O1` (stereo not given in full), for which the T/C reads like this: (dose: 2.0 mg/kg/injection, vehicle: saline) 11 % of control and 13 % of control and 25 % of control; (dose: 4.0 mg/kg/injection, vehicle: saline) 9 % of control and 13 % of control and 20 % of control; (dose: 8.0 mg/kg/injection, vehicle: saline) 7 % of control and -9 % of control and -8 % of control.

As to `COc1cccc(Sc2ccc([N+](=O)[O-])c3no[n+]([O-])c23)c1`, the T/C under setting [7] is 49 % of control and the T/C under setting [3] is 86 % of control.

As to `NC(=S=O)C(N)=S=O`, the T/C is 97 % of control (dose: 125.0 mg/kg/injection, vehicle: saline with Tween-80); 98 % of control under setting [6]; 100 % of control (dose: 500.0 mg/kg/injection, vehicle: saline with Tween-80).

Take `CCOC1NC(=O)Oc2ccccc21` (stereo not given): the T/C (dose: 150.0 mg/kg/injection, vehicle: Klucel (hydroxypropylcellulose) (HPC)) is 43 % of control and the T/C (dose: 600.0 mg/kg/injection, vehicle: Klucel (hydroxypropylcellulose) (HPC)) is 54 % of control.

Consider `CCCC1CCC(=C2C(=O)CCC2=O)O1` (stereo not given), for which the T/C (dose: 37.5 mg/kg/injection, vehicle: saline with Tween-80) is 247 % of control; the T/C under setting [7] is 68 % of control; the T/C under setting [3] is 109 % of control; the T/C under setting [4] is 50 % of control.
